Holding throughout (type): cell-based
One assay has as its system MRSA 78. The assay is described as follows: MIC by broth dilution. The settings on record: Staphylococcus aureus, 24 h, read-out: Vancomycin MIC. As to the method:
(§1) The MICs of free and liposomal antibiotics for all strains were determined by the broth dilution technique. Briefly, serial dilutions of free- or liposome-encapsulated antibiotic from 20 to 0.3 μg/ml were prepared. For bacterial suspensions, frozen stocks of MRSA were streaked on sheep blood agar plates. Single colonies were inoculated into fresh media and shaken for 20 hr at 37° C. The overnight bacteria were diluted and added to 96-well plates (Becton Dickinson) to achieve an approximate concentration of 1×10^5. The inocula were confirmed by plating on agar. The 96-well plates were then incubated with or without shaking at 37° C., and the lowest concentration of antibiotic formulations that inhibited visible growth of bacteria was determined after 24 hours (MIC). Incubation of the plates with shaking (at 200 rpm) increased the consistency of MIC measurement for the liposomal preparations. For determination of MBC, the broths used for MIC determination were plated on agar, and the first dilution at which 99.9% of the original inocula were killed was identified. All MIC and MBC assays were performed at least three times.

A further assay concerns MRSA 79. The assay is described as follows: MIC by broth dilution. The settings on record: Staphylococcus aureus, 24 h, read-out: Vancomycin MIC. The procedure:
as §1
A general note: Dilution methods test growth across graded concentrations, often in twofold steps.

For the next assay, the system named is MRSA 80. Put plainly: MIC by broth dilution. The settings on record: Staphylococcus aureus, 24 h, read-out: Vancomycin MIC. The procedure: as §1
The next assay has as its system MRSA 81. The assay is described as follows: MIC by broth dilution. The settings on record: Staphylococcus aureus, 24 h, read-out: Vancomycin MIC. As to the method: as §1
For another assay, the system named is MRSA 82. The assay is described as follows: MIC by broth dilution. The settings on record: Staphylococcus aureus, 24 h, read-out: Vancomycin MIC. The procedure:
as §1

The subject of the next assay is MRSA 83. The assay is described as follows: MIC by broth dilution. The settings on record: Staphylococcus aureus, 24 h, read-out: Vancomycin MIC. As to the method: as §1
Another assay concerns MRSA strain ATCC 43300. Put plainly: MIC by broth dilution. The settings on record: Staphylococcus aureus, 24 h, read-out: Vancomycin MIC. The procedure:
as §1

In assay [1] the test system is MRSA strain LAC. The assay is described as follows: MIC by broth dilution. The settings on record: Staphylococcus aureus, 24 h, read-out: Vancomycin MIC. As to the method:
as §1

The test system of assay [2] is MRSA strain NRS-35. The assay is described as follows: MIC by broth dilution. The settings on record: Staphylococcus aureus, 24 h, read-out: Vancomycin MIC. The procedure: as §1
Assay [3] concerns MRSA strain LAC. Put plainly: MBC determination. The settings on record: Staphylococcus aureus, read-out: Vancomycin MBC. The procedure:
as §1

In assay [4] the test system is MRSA strain NRS-35. The assay is described as follows: MBC determination. The settings on record: Staphylococcus aureus, read-out: Vancomycin MBC. As to the method: as §1

In brackets after ≈: the same amount, converted by molar mass.

What is called MIC is the lowest concentration found to suppress growth. As usually defined, the MBC is the lowest tested concentration that kills the bacteria rather than only halting them. For the compound `CN[C@H](CC(C)C)C(=O)N[C@H]1C(=O)N[C@@H](CC(N)=O)C(=O)N[C@H]2C(=O)N[C@H]3C(=O)N[C@H](C(=O)N[C@H](C(=O)O)c4cc(O)cc(O)c4-c4cc3ccc4O)[C@H](O)c3ccc(c(Cl)c3)Oc3cc2cc(c3O[C@@H]2O[C@H](CO)[C@@H](O)[C@H](O)[C@H]2O[C@H]2C[C@](C)(N)[C@H](O)[C@H](C)O2)Oc2ccc(cc2Cl)[C@H]1O` [Free Vancomycin, Vancomycin], the minimum inhibitory concentration (MIC) in the assay on MRSA 78 is 1.25 µg/mL (≈ 0.863 µM); in the assay on MRSA 79, 1.25 µg/mL (≈ 0.863 µM); with MRSA 80, 1.25 µg/mL (≈ 0.863 µM); in the assay with MRSA 81 it was 1.25 µg/mL (≈ 0.863 µM); in the assay with MRSA 82 it was 2.5 µg/mL (≈ 1.73 µM); in the assay with MRSA 83 it was 1.25 µg/mL (≈ 0.863 µM). In addition, the MIC was 1.25 to 2.5 µg/mL (≈ 0.863 to 1.73 µM) with MRSA strain ATCC 43300, 1.25 to 2.5 µg/mL (≈ 0.863 to 1.73 µM) in the assay on MRSA strain LAC [1] and 2.5 µg/mL (≈ 1.73 µM) in the assay with MRSA strain NRS-35 [2]. The MBC with MRSA strain LAC [3] is 2.5 µg/mL (≈ 1.73 µM); with MRSA strain NRS-35 [4] it was 2.5 to 5 µg/mL (≈ 1.73 to 3.45 µM).

(Values after patent US20140205654A1, “LIPOSOMAL VANCOMYCIN FOR THE TREATMENT OF MRSA INFECTIONS” (CEDARS-SINAI MEDICAL CENTER, priority 2011, published 2014).)
